The record followed here is patent publication US20110071124A1, “Compounds that Inhibit Production of sAPPB and AB and Uses Thereof” (The Trustees of Columbia University in the City of New York, priority 2008, published 2011).

Experiment [1] concerns Aβ40 in SY5Y-BACEGFP-SEAPAPPwt cells. Kind of experiment: Aβ40 ELISA (BioSource) in SY5Y-BACEGFP-SEAPAPPwt cells. It counts as cell-based. To be noted: for IC50: SAR study, 8 concentrations (30-0.01 μM), SY5Y-BACEGFP-SEAPAPPwt cells. On the procedure: FIG. 11. 5 LDDN compounds reduce Aβ40 in SYSY-BACEGFP-SEAPAPPwt cells. sAPPβ and 24-hour cell viability was performed as described in Chapter 4.1. Aβ40 ELISA was performed using the Aβ40 ELISA kit (BioSource) according to the manufacturer's protocol. Cell culture media was collected after 6 hours of treatment with 4 concentrations (30, 10, 3, 0.3 μM) of compound and diluted 3:10 prior to loading onto the Aβ ELISA plate. The data points for sAPPβ and Aβ were roughly superimposed. Data points represent mean±s.d. of 3 determinations.
FIG. 13. […] Compounds were tested in SY5Y-BACEGFP-SEAPAPPwt cells using the cell-based BACE1 assay. Select compounds were also investigated for Aβ-lowering effect using a commercial Aβ ELISA kit (BioSource). All compounds were tested at 8 concentrations (30, 10, 3, 1, 0.3, 0.1, 0.03, and 0.01 μM), and data points were analyzed with Origin software and fitted using a logistic model for IC50 determination.
In other non-limiting embodiments, the effective amount of at least one compound of Formulas I-VII, and/or a compound depicted in FIG. 19, may be correlated with the compound's ability to reduce the level of Aβ40 in an in vitro assay that measures the level of Aβ40 produced in a cell line, for example, an SY5Y-BACEGFP-SEAPAPPwt cell line. In one non-limiting example, the level of Aβ40 expressed by the cell line may be measured through the use of an Aβ40 Elisa kit (Bio Source). In one embodiment, the assay comprises incubating the Aβ40 expressing cells with a compound of Formulas I-VII, and/or a compound depicted in FIG. 19, followed by assaying the concentration of Aβ40 in the cell media. In such an assay, a greater reduction of Aβ40 concentration in the cell media following incubation with a compound compared to a control cell line not contacted with the compound is correlative with the compound's therapeutic efficacy.
The 15 LDDN compounds were tested in SY5Y-BACEGFP-SEAPAPPwt cells for their ability to reduce Aβ40 using a commercial Aβ40 ELISA kit (BioSource). SY5Y-BACEGFP-SEAPAPPwt cells were grown to 100% confluence and incubated with 4 concentrations of each compound (30, 10, 3, 0.3 μM). Cell culture media was collected after 6 hours of compound incubation and diluted 3:10 in sample diluent supplied in the Aβ40 ELISA kit. Aβ ELISA was performed according to the manufacturer's protocol. […] LDN-0057228 and LDN-0069630 are small molecules with ample chemical space for modification, and are thus considered good candidates for medicinal chemistry.
27 structural analogs of LDN-0057228 were synthesized and tested using the cell-based BACE1 assay in SY5Y-BACEGFP-SEAPAPPwt cells (FIG. 13). 4 analogs, in addition to the parent compound, were also assessed for Aβ40 lowering activity using a commercial Aβ kit (BioSource). Because LDN-0057228 resembles CNS monoamine transporter inhibitors, this analog series was given the designation “CNS.” LDN-0057228 gave an unexpectedly low potency (IC50˜20 μM for both sAPPβ and Aβ40 reduction) compared to the ˜7 μM potency obtained using the same compound in FIG. 8.
Background: An ELISA detects its analyte on a solid surface through an enzyme-linked reagent.

Experiment [2] has as its system Aβ40 in Lenti-APPsw infected primary cortical neurons. The experiment can be described thus: Aβ40 ELISA in Lenti-APPsw infected primary cortical neurons. The format is cell-based, mouse. The settings on record: 24 hours. On the procedure: FIG. 15A-D. LDN-0057228 reduces Aβ40 and sAPPβ in primary neurons. DIV-14 primary cortical neurons from wild-type mice were incubated for 24 hours with primary culture media containing lentivirus harboring APPsw. After infection, neurons were incubated for 48 hours with 1:1 fresh to conditioned media to allow for APP expression. Neurons were then treated with LDN-0057228 at 20 μM for 24 hours in triplicate. A) Media was collected for Aβ40 ELISA. Raw Aβ40 values were normalized to APP to control for variations in lentiviral infection efficiency. B) Cell lysates were probed with 6E10 antibody to visualize the transduced full-length APP. C) sAPPβ from neuron culture media was immunoprecipitated with sβsw antibody and probed with LN27. D) Quantification of sAPPβ, normalized to APP. Data in A) and […]) represent mean+s.d. of 3 wells. Bands from B) and C) were quantified using ImageJ software.
FIG. 16A-B. CNS-2 and LDN-0057228 reduce Aβ40 in primary neurons. DIV-14 primary cortical neurons from wild-type mice were incubated for 24 hours with primary culture media containing lentivirus harboring APPsw. After infection, neurons were incubated for 48 hours with 1:1 fresh to conditioned media to allow for APP expression. Neurons were then treated for 24 hours with the indicated compound and concentration. A) Media was collected for Aβ40 ELISA. Raw Aβ40 values were normalized to APP to control for variations in lentiviral infection efficiency. B) Cell lysates were probed with 6E10 antibody to visualize the transduced full-length APP.
Lenti-APPsw infected primary cortical neurons were selected for the initial round of physiological experiments due to the relatively large batches of wild-type primary cortical neurons that were routinely harvested in the lab, the ease of lentiviral packaging. Primary cortical neurons were harvested from wild-type P0 pups using established protocols.
The Lenti-APPsw vector was co-transfected into HEK293 T cells with ViraPower packaging mix (Invitrogen) to generate the lentivirus. Lentiviral-mediated transduction of APPsw in primary neurons was performed by adding neuron primary culture media containing the lentiviral particles to wild-type DIV-14 primary neurons (FIG. 14). After 24 hours, neurons were incubated with media for 72 hours prior to collecting for Aβ40 measurement. Two batches of virus (LV-1 and LV-2) were tested, showing that there is batch-to-batch variation in the viral titer.
Using this experimental paradigm, LDN-0057228 was tested at 20 μM concentration to confirm the sAPPβ- and Aβ-lowering activity of the compound (FIG. 15). The protocol was modified slightly to allow for 24-hour compound treatment. […]

Usually IC50 stands for the concentration at which inhibition is half-maximal. Lower therefore signals higher potency. As for `Fc1ccc(C(OCCN2CCC[C@H]2CNCCc2ccccc2)c2ccc(F)cc2)cc1` [LDN-0057228], in experiment [1] (4 concentrations (30, 10, 3, 0.3 μM), 6 hours), the “dose-dependent decrease in Aβ40” value is reported as “caused a dose-dependent decrease in Aβ40”. Moreover, the concentration for half-maximal inhibition (IC50) in experiment [1] was about 20 µM. Also, in experiment [2] (20 μM, normalized to APP), the “reduction in Aβ40 levels” value is 75%.
In experiment [1], `O=C(CCc1ccccc1)NC[C@@H]1CCCN1CCOC(c1ccc(F)cc1)c1ccc(F)cc1` [CNS-2] yielded an IC50 of 5 µM. The “reduction in Aβ40” value in experiment [2] (5 μM) is on record as over 80%.
